Experimental data from patent US7119102B2, “Substituted 3-amino-thieno[2,3-b]pyridine-2-carboxylic acid amide compounds and processes for preparing and their uses” (Boehringer Ingelheim Pharmaceuticals, Inc., priority 2003, dated 2006).

| SMILES | melting point |
| --- | --- |
| CCCc1cc(N2CCC(NCC(O)c3cnc4ccccc4c3)CC2)nc2sc(C(N)=O)c(N)c12 (centres unmarked) [Example 8, 3-Amino-6-[4-(2-hydroxy-2-quinolin-3-yl-ethylamino)-piperidin-1-yl]-4-propyl-thieno[2,3-b]pyridine-2-carboxylic acid amide] | 213 to 216 °C |
| NC(=O)c1sc2nc(N3CCC(NCC(O)c4cccnc4)CC3)cc(C(F)(F)F)c2c1N (centres unmarked) [Example 9, 3-Amino-6-[4-(2-hydroxy-2-pyridin-3-yl-ethylamino)-piperidin-1-yl]-4-trifluoromethyl-thieno[2,3-b]pyridine-2-carboxylic acid amide] | 179 to 181 °C |
| NC(=O)c1sc2nc(N3CCC(NCC(O)c4ccc5ccccc5n4)CC3)cc(C(F)(F)F)c2c1N (centres unmarked) [Example 10, 3-Amino-6-[4-(2-hydroxy-2-quinolin-2-yl-ethylamino)-piperidin-1-yl]-4-trifluoromethyl-thieno[2,3-b]pyridine-2-carboxylic acid amide] | 198 to 201 °C |

Now from value to molecule:

| melting point | SMILES |
| --- | --- |
| 213 to 215 °C (dec.) | CCCc1cc(N2CCC(NCC(O)c3cc4ccccc4cn3)CC2)nc2sc(C(N)=O)c(N)c12 (centres unmarked) [Example 11, 3-Amino-6-[4-(2-hydroxy-2-isoquinolin-3-yl-ethylamino)-piperidin-1-yl]-4-propyl-thieno[2,3-b]pyridine-2-carboxylic acid amide] |
| 165 to 167 °C | NC(=O)c1sc2nc(N3CCC(NC[C@@H](O)c4ccccn4)CC3)cc(C(F)(F)F)c2c1N [Example 22, 3-Amino-6-[4-((R)-2-hydroxy-2-pyridin-2-yl-ethylamino)-piperidin-1-yl]-4-trifluoromethyl-thieno[2,3-b]pyridine-2-carboxylic acid amide] |
